# Columns and labels:
# [1] = tested on: NCI-60 panel of cancer cell lines; assay: NCI-60 one dose screen, whole panel; format: cell-based; settings: 10 μM, 48 hours
# Experimental: One dose and five dose cytotoxicity screening was performed by the NCI-60 screening program of the National Institutes of Health (NIH), which is known in the art and available from the NIH. The NCI-60 panel is a collection of cancer cell lines, from various diverse tumors, which was developed in the 1980s by the National Cancer Institute to aid screening efforts for cytotoxic or cytostatic compounds.
# In these screens, 60 cell lines, were utilized to determine the cytotoxic effect of small molecules, natural products, and other drug candidates. […]
# The five dose screen was performed by creating four 10-fold dilutions of the highest concentration of the diluted 7-acetoxyroyleanone made in the same manner as the one dose screen. […] The bound stain was then dissolved in 10 mM trizma base and the absorbance was read using an automated plate reader at 515 nm. […]
# [2] = tested on: MDA-MB-468 (breast cancer) cells; assay: NCI-60 five dose screen, MDA-MB-468; settings: read-out: LC50; MDA-MB-468, Breast
compound,measurement,setting,value
CC(=O)O[C@@H]1C[C@H]2C(C)(C)CCC[C@]2(C)C2=C1C(=O)C(C(C)C)=C(O)C2=O [7-acetoxyroyleanone],"growth percent, average for all cell types screened",[1],−18.5%
same,growth inhibition of each cell line compared to the control,[1]; minimum over all cell lines,at least 72.88%
same,CC50,[2],9.46 µM
